Assay type in all cases: biochemical
The target of assay [1] is T1, μ-opioid receptor (Homo sapiens, UniProt P35372). Nature of the assay: μ-opioid receptor [35S]GTPγS functional assay, HEK-293 or CHO cells. As to conditions: for Emax: HEK-293 or CHO cells, relative to DAMGO. As to the method:
(§1) [^35S]GTPγS functional assays were conducted using freshly thawed μ-receptor membranes prepared in-house from a cell line expressing recombinant opioid receptor in a HEK-293, CHO or U-2 OS cell background, or purchased from a commercial source (Perkin Elmer, Shelton, Conn.; or DiscovRx, Fremont, Calif.). Assay reactions were prepared by sequentially adding the following reagents to binding buffer (100 mM NaCl, 10 mM MgCl2, 20 mM HEPES, pH 7.4) on ice (final concentrations indicated): membrane protein (0.026 mg/mL), saponin ([…]), GDP ([…]) and [^35S]GTPγS (0.20 nM; Perkin Elmer, Shelton, Conn.). The prepared membrane solution (190 l/well) was transferred to 96-shallow well polypropylene plates containing 10 μl of 20× concentrated stock solutions of the agonist [D-Ala^2, N-methyl-Phe^4 Gly-ol^5]-enkephalin (DAMGO) prepared in dimethyl sulfoxide (DMSO). Plates were incubated for 30 min at about 25° C. with shaking. Reactions were terminated by rapid filtration onto 96-well Unifilter GF/B filter plates (Perkin Elmer, Shelton, Conn.) using a 96-well tissue harvester (Perkin Elmer, Shelton, Conn.) followed by three filtration washes with 200 μl of ice-cold wash buffer (10 mM NaH2PO4, 10 mM Na2HPO4, pH 7.4). Filter plates were subsequently dried at 50° C. for 2-3 hr. BetaScint scintillation cocktail (Perkin Elmer, Shelton, Conn.) was added (50 μl/well) and plates were counted using a Packard Top-Count for 1 min/well. Data were analyzed using the sigmoidal dose-response curve fitting functions in GraphPad PRISM v. 3.0, or an in-house function for non-linear, sigmoidal dose-response curve-fitting.
(§2) μ GTP EC50 is the concentration of a compound providing 50% of the maximal response for the compound at a μ-opioid receptor.
(§3) μ GTP Emax (%) is the maximal effect elicited by a compound relative to the effect elicited by DAMGO, a standard agonist. Generally, the μ GTP Emax (%) value measures the efficacy of a compound to treat or prevent pain or other Conditions.
In TABLE 2, activity response of certain Compounds of the Invention at the μ- and κ-opioid receptors using HEK-293 or CHO cells was determined as described above for functional assays.

Assay [2] addresses T1, μ-opioid receptor. Nature of the assay: μ-opioid receptor [35S]GTPγS functional assay, U-2 OS cells. The arrangement: host or cells: U-2 OS cells. How it is done: as §1, §2, §3
(§4) In TABLE 2A, activity response of certain Compounds of the Invention at the μ- and κ-opioid receptors using U-2 OS cells was determined as described above for functional assays.
(Binding of GTPγS marks nucleotide exchange on a G protein.)

Assay [3] deals with human κ opioid receptor (Homo sapiens, UniProt P41145). The assay is described as follows: κ-opioid receptor [35S]GTPγS functional assay, U-2 OS cells. On the set-up: expressed in transfected cells; host or cells: U-2 OS cells (in-house membranes). How it is done: Membranes from recombinant HEK-293 cells, CHO or U-2 OS cells expressing the recombinant human K opioid receptor (K) were prepared by lysing cells in ice cold hypotonic buffer (2.5 mM MgCl2, 50 mM HEPES, pH 7.4) (10 mL/10 cm dish) followed by homogenization with a tissue grinder/Teflon pestle. Functional [^35S]GTPγS binding assays were conducted as follows. K opioid receptor membrane solution was prepared by sequentially adding final concentrations of 0.026 μg/μl κ membrane protein (in-house), 10 μg/mL saponin, 3 μM GDP and 0.20 nM [^35S]GTPγS to binding buffer (100 mM NaCl, 10 mM MgCl2, 20 mM HEPES, pH 7.4) on ice. The prepared membrane solution (190 μl/well) was transferred to 96-shallow well polypropylene plates containing 10 μl of 20× concentrated stock solutions of agonist prepared in DMSO. Plates were incubated for 30 min at a temperature of about 25° C. with shaking. Reactions were terminated by rapid filtration onto 96-well Unifilter GF/B filter plates (Perkin Elmer, Shelton, Conn.) using a 96-well tissue harvester (Packard) and followed by three filtration washes with 200 μl ice-cold binding buffer (10 mM NaH2PO4, 10 mM Na2HPO4, pH 7.4). Filter plates were subsequently dried at 50° C. for 2-3 hours. Fifty μl/well scintillation cocktail (Perkin Elmer, Shelton, Conn.) was added and plates were counted in a Packard Top-Count for 1 min/well.
human κ opioid receptor, sequence (P41145 whole entry): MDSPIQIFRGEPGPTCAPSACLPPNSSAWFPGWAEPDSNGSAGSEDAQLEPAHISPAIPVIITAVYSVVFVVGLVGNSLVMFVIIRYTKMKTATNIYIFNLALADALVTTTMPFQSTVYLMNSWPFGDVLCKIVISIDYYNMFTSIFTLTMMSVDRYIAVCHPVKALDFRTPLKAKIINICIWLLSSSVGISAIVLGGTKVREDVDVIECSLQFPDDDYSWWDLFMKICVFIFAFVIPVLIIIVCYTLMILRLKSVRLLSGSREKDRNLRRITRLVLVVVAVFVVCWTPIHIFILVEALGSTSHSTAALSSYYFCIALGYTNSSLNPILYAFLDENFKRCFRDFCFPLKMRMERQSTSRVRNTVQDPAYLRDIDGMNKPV
κ GTP EC50 is the concentration of a compound providing 50% of the maximal response for the compound at a κ receptor.
κ GTP Emax (%) is the maximal effect elicited by a compound relative to the effect elicited by U69,593.
as §4

Experimental findings from patent US20200148646A1, “6-S[…] 7-S[…] ANALOGS AND THE USE THEREOF” (Purdue Pharma, L.P., priority 2013, published 2020) are described below.

T1 sequence (P35372 whole entry, species assumed): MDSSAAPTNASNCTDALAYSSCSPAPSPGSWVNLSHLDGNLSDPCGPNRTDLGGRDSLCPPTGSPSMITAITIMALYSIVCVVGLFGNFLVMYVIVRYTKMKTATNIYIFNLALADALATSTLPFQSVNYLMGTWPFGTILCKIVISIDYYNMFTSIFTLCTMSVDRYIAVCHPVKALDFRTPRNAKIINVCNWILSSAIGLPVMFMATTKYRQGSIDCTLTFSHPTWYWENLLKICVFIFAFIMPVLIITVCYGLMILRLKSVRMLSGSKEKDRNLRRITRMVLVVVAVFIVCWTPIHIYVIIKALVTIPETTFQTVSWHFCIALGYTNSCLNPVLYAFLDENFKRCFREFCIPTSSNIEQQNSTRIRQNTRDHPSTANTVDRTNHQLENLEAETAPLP

On to `CC(C)C(=O)N[C@H]1C[C@H]2[C@H]3Cc4ccc(O)cc4[C@@]2(CCN3CC2CC2)C[C@H]1O` [Compound 112, N-((4bS,6R,7S,8aR,9R)-11-(cyclopropylmethyl)-3,6-dihydroxy-6,7,8,8a,9,10-hexahydro-5H-9,4b-(epiminoethano)phenanthren-7-yl)isobutyramide], for which, in assay [1], the EC50 (usually the concentration giving half of the maximal effect) is 0.0667 ± 0.0275 µM and the Emax (in general, the maximal effect, on the per cent scale that the assay sets) worked out at 8.61 ± 0.31%.

In the case of `CN(C)CC(=O)N[C@H]1C[C@@]2(O)[C@H]3Cc4ccc(O)cc4[C@@]2(CCN3CC2CC2)C[C@@H]1O` [Compound 111, N-((4bR,6S,7S,8aS,9R)-11-(cyclopropylmethyl)-3,6,8a-trihydroxy-6,7,8,8a,9,10-hexahydro-5H-9,4b-(epiminoethano)phenanthren-7-yl)-2-(dimethylamino)acetamide], in assay [1], the EC50 was > 20 µM and the Emax was 1.67 ± 0.67%.

As for `CC(C)CCCC(=O)N[C@H]1C[C@@]2(O)[C@H]3Cc4ccc(O)cc4[C@@]2(CCN3C)CC1O` (stereo partly drawn) [Compound 106, 5-methyl-N-((4bR,7S,8aS,9R)-3,6,8a-trihydroxy-11-methyl-6,7,8,8a,9,10-hexahydro-5H-9,4b-(epiminoethano)phenanthren-7-yl)hexanamide], in assay [1], the half-maximal effective concentration (EC50) worked out at 0.635 ± 0.0437 µM and the Emax turned out to be 82.3 ± 1.86%.

With `CN1CC[C@]23C[C@H](OCCO)C[C@@H](O)[C@@H]2[C@H]1Cc1ccc(O)cc13` [Compound 121, (4bS,6S,8R,8aS,9R)-6-(2-hydroxyethoxy)-11-methyl-6,7,8,8a,9,10-hexahydro-5H-9,4b-(epiminoethano)phenanthrene-3,8-diol], in assay [1], it took 1.96 ± 0.876 µM to reach a half-maximal effect (EC50) and the Emax came to 16.6 ± 1.97%.

On to `COc1ccc2c(c1)[C@]13CCN(C)[C@H](C2)[C@H]1[C@H](O)C[C@@H](OCCO)C3` [Compound 119, (4bS,6S,8R,8aS,9R)-6-(2-hydroxyethoxy)-3-methoxy-11-methyl-6,7,8,8a,9,10-hexahydro-5H-9,4b-(epiminoethano)phenanthren-8-ol], for which, in assay [1], the EC50 is > 20 µM and the Emax came to 24.2 ± 3.04%.

With `CN(C)[C@@H]1CC[C@@]2(O)[C@H]3Cc4ccc(O)cc4[C@@]2(CCN3C)C1` [Compound 107, (4bR,6R,8aS,9R)-6-(dimethylamino)-11-methyl-5,6,7,8,9,10-hexahydro-8aH-9,4b-(epiminoethano)phenanthrene-3,8a-diol], in assay [1], it took 1.29 ± 0.0203 µM to reach a half-maximal effect (EC50) and the Emax was 36.3 ± 1.2%.

On to `CN1CC[C@]23C[C@@H](OCCO)C[C@@H](O)[C@@H]2[C@H]1Cc1ccc(O)cc13` [Compound 120, (4bS,6R,8R,8aS,9R)-6-(2-hydroxyethoxy)-11-methyl-6,7,8,8a,9,10-hexahydro-5H-9,4b-(epiminoethano)phenanthrene-3,8-diol], for which, in assay [1], a half-maximal response (EC50) required 0.436 ± 0.0347 µM and the Emax was 36.3 ± 1.43%.

In the case of `CCN[C@H]1C[C@@]2(O)[C@H]3Cc4ccc(O)cc4[C@@]2(CCN3C)C[C@H]1O` [Compound 113, (4bR,6R,7S,8aS,9R)-7-(ethylamino)-11-methyl-5,6,7,8,9,10-hexahydro-8aH-9,4b-(epiminoethano)phenanthrene-3,6,8a-triol], in assay [1], the EC50 was > 20 µM and the Emax was 3.62 ± 3.99%.

As for `CCN[C@H]1C[C@@]2(O)[C@H]3Cc4ccc(O)cc4[C@@]2(CCN3C)C[C@@H]1O` [Compound 114, (4bR,6S,7S,8aS,9R)-7-(ethylamino)-11-methyl-5,6,7,8,9,10-hexahydro-8aH-9,4b-(epiminoethano)phenanthrene-3,6,8a-triol], in assay [1], the EC50 was > 20 µM and the Emax was 9.47 ± 0.74%.

With `CC(C)CCC(=O)N[C@H]1C[C@@]2(O)[C@H]3Cc4ccc(O)cc4[C@@]2(CCN3C)CC1O` (stereo partly drawn) [Compound 105, 4-methyl-N-((4bR,7S,8aS,9R)-3,6,8a-trihydroxy-11-methyl-6,7,8,8a,9,10-hexahydro-5H-9,4b-(epiminoethano)phenanthren-7-yl)pentanamide], in assay [1], the EC50 was determined as 3.65 ± 0.294 µM and the Emax was 77 ± 2.65%.

As for `CC(C)CCCC(=O)O[C@@H]1C[C@]23CCN(CC4CC4)[C@H](Cc4ccc(O)cc42)[C@]3(O)C[C@@H]1N` [Compound 117, (4bR,6R,7S,8aS,9R)-7-amino-11-(cyclopropylmethyl)-3,8a-dihydroxy-6,7,8,8a,9,10-hexahydro-5H-9,4b-(epiminoethano)phenanthren-6-yl 5-methylhexanoate], in assay [1], a half-maximal effect (EC50) was put at 0.023 ± 0.00359 µM and the Emax came to 14.1 ± 1.2%.

`CN1CC[C@]23CC(O)[C@@H](CC4CCCC4)C[C@@]2(O)[C@H]1Cc1ccc(O)cc13` (stereo partly drawn) [Compound 110, (4bR,7S,8aS,9R)-7-(cyclopentylmethyl)-11-methyl-5,6,7,8,9,10-hexahydro-8aH-9,4b-(epiminoethano)phenanthrene-3,6,8a-triol]: in assay [1], the EC50 was > 20 µM and the Emax was found to be 42.7 ± 32.7%.

Take `CC(C)C(=O)N[C@H]1C[C@@]2(O)[C@H]3Cc4ccc(O)cc4[C@@]2(CCN3C)C[C@H]1O` [Compound 104, N-((4bR,6R,7S,8aS,9R)-3,6,8a-trihydroxy-11-methyl-6,7,8,8a,9,10-hexahydro-5H-9,4b-(epiminoethano)phenanthren-7-yl)isobutyramide]: in assay [1], the EC50 was found to be 15.5 ± 1.32 µM and the Emax came out at 23 ± 1.53%.

Take `CC(C)CCCC(=O)N[C@H]1C[C@@]2(O)[C@H]3Cc4ccc(O)cc4[C@@]2(CCN3CC2CC2)C[C@@H]1O` [Compound 115, N-((4bR,6S,7S,8aS,9R)-11-(cyclopropylmethyl)-3,6,8a-trihydroxy-6,7,8,8a,9,10-hexahydro-5H-9,4b-(epiminoethano)phenanthren-7-yl)-5-methylhexanamide]: in assay [1], the EC50 is > 20 µM and the Emax is -1.04%.

For the molecule `CN1CC[C@]23C[C@@H](O)[C@@H](NC(=O)c4ccccc4)C[C@@]2(O)[C@H]1Cc1ccc(O)cc13` [Compound 108, N-((4bR,6R,7S,8aS,9R)-3,6,8a-trihydroxy-11-methyl-6,7,8,8a,9,10-hexahydro-5H-9,4b-(epiminoethano)phenanthren-7-yl)benzamide], in assay [1], the midpoint of the response, the EC50, lay at 2.19 ± 0.211 µM and the Emax was 48.4 ± 0.66%.

On to `CN[C@H]1C[C@@]2(O)[C@H]3Cc4ccc(O)cc4[C@@]2(CCN3C)C[C@H]1O` [Compound 116, (4bR,6R,7S,8aS,9R)-11-methyl-7-(methylamino)-5,6,7,8,9,10-hexahydro-8aH-9,4b-(epiminoethano)phenanthrene-3,6,8a-triol], for which, in assay [1], a half-maximal effect (EC50) was put at 13.8 ± 0.6 µM and the Emax amounted to 28.9 ± 1.26%.

On to `O=C(N[C@H]1C[C@@]2(O)[C@H]3Cc4ccc(O)cc4[C@@]2(CCN3CC2CC2)C[C@H]1O)c1ccccc1` [Compound 66, N-((4bR,6R,7S,8aS,9R)-11-(cyclopropylmethyl)-3,6,8a-trihydroxy-6,7,8,8a,9,10-hexahydro-5H-9,4b-(epiminoethano)phenanthren-7-yl)benzamide], for which the EC50 stood at 0.114 ± 0.0145 µM in assay [2] and 0.0392 ± 0.00427 µM in assay [3]. In addition, the Emax came to 15 ± 0.58% in assay [2] (U2-OS cells, relative to DAMGO) and 71.7 ± 1.2% in assay [3] (U2-OS cells, relative to U69,593).
